# Source: patent publication US11931424B2, “Combination MCL-1 inhibitors with anti-body drug conjugates” (Gilead Sciences, Inc., priority 2021, dated 2024)
# Assays:
# Assay type in all cases: cell-based
# [1] = system: HCC1187 (TNBC); test: Compound A + SN-38 cell viability combination assay (Cell Titer Glo, Bliss synergy); conditions: HCC1187, 1st Replicate (n = 5), 72 hours; SN-38 0.0000 μM; Compound A μM = c0 of the row
# Description: (§1) Cells were passaged according to ATCC guidelines with 0.25% Trypsin/EDTA (1× GIBCO-25200).
# (§2) Calculated values were compared to experimental results generated in the sixty-three-concentration checkerboard. Synergy or antagonism scores were generated depending on whether the observed growth inhibition was greater than or less than the calculated values, respectively.
# (§3) Data for combination assays is presented in three formats.
# [2] = system: panel of breast cancer cell lines; test: Compound A with targeted agents and chemotherapies, 72-hour in vitro proliferation assays
# [3] = system: HCC1806; test: Compound A + paclitaxel cell viability combination assay (Cell Titer Glo, Bliss synergy); conditions: Homo sapiens, read-out: Percent Inhibition
# Description: as §1
# Viability assessments were performed using Cell Titer Glo™ (Promega #G9241) according to manufactures microwell plate protocol and read for luminescence on Synergy Neo2 plate reader.
# For synergy matrix assays, TNBC cell lines were seeded 10,000 cells per well in clear-bottomed white 96-well plates (Corning #3909) in 100 μL of recommended cell culture medium. Plates were incubated at 37° C. and 100% RH for 20 hours prior to compound exposure.
# Cells were then exposed to compound A with the same checkerboard matrix using D300 dispenser and incubated for 48 hours prior to measurement of viability by Cell Titer Glo.
# as §2
# These differences were summed up across the whole checker-board (sixty-three wells) to give cumulative synergy and antagonism scores with units of μM^2% to reflect the 2D surface of the dose responses.
# as §3
# [4] = system: panel of haematalogical cancer cell lines; test: Compound A with BTK inhibitors, 72-hour in vitro proliferation assays; conditions: combination Compound A × listed BTK inhibitor, 72-hour proliferation
structure (smiles),measurement,setting,value
"COc1nn(C)cc1C(=O)N[S@@]1(=O)=NC(=O)c2ccc3c(c2)N(C[C@@H]2CC[C@H]2[C@@H](OC)/C=C/C[C@H](C)C1)C[C@@]1(CCCc2cc(Cl)ccc21)CO3 [Compound A, N-[(4S,7aR,9aR,10S,11E,14S)-6′-chloro-10-methoxy-14-methyl-16-oxido-18-oxo-3′,4′,7,7a,8,9,9a,10,13,14,15,18-dodecahydro-2′H-spiro[1,19-(ethanediylidene)-16λ^4-cyclobuta[i][1,4]oxazepino[3,4-f][1,2,7]thiadiazacyclohexadecine-4,1′-naphthalen]-16-yl]-3-methoxy-1-methyl-1H-pyrazole-4-carboxamide]",Percent Inhibition,[1],99.2%
"CC(=O)O[C@H]1C(=O)[C@@]2(C)[C@H]([C@H](OC(=O)c3ccccc3)[C@]3(O)C[C@H](OC(=O)[C@H](O)[C@@H](NC(=O)c4ccccc4)c4ccccc4)C(C)=C1C3(C)C)[C@]1(OC(C)=O)CO[C@@H]1C[C@@H]2O [Paclitaxel, reference compound]",Best CI,[2]; 72 h,0.32
same,Best CI,"[2]; AU565 cell line, compound A × partner, 72-hour proliferation",0.19
same,Best CI,"[2]; BT-20 cell line, compound A × partner, 72-hour proliferation",0.05
same,Best CI,"[2]; BT-474 cell line, compound A × partner, 72-hour proliferation",0.16
same,Best CI,"[2]; BT-549 cell line, compound A × partner, 72-hour proliferation",0.27
same,Best CI,"[2]; CAL-51 cell line, compound A × partner, 72-hour proliferation",0.50
same,Best CI,"[2]; CAL-85-1 cell line, compound A × partner, 72-hour proliferation",0.23
same,Best CI,"[2]; CAL-148 cell line, compound A × partner, 72-hour proliferation",0.25
same,Best CI,"[2]; CAMA-1 cell line, compound A × partner, 72-hour proliferation",0.05
same,Best CI,"[2]; DU-4475 cell line, compound A × partner, 72-hour proliferation",0.57
same,Best CI,"[2]; EVSA-T cell line, compound A × partner, 72-hour proliferation",0.26
same,Best CI,"[2]; HCC38, compound A × partner, 72-hour proliferation",0.21
same,Best CI,"[2]; HCC70, compound A × partner, 72-hour proliferation",0.14
same,Best CI,"[2]; HCC1143, compound A × partner, 72-hour proliferation",0.35
same,Best CI,"[2]; HCC1569, compound A × partner, 72-hour proliferation",0.41
same,Best CI,"[2]; HCC1806, compound A × partner, 72-hour proliferation",0.10
same,Best CI,"[2]; HCC1937, compound A × partner, 72-hour proliferation",0.18
same,Best CI,"[2]; HCC1954, compound A × partner, 72-hour proliferation",0.05
same,Best CI,"[2]; HCC2218, compound A × partner, 72-hour proliferation",0.55
same,Best CI,"[2]; HDQ-P1, compound A × partner, 72-hour proliferation",0.82
same,Best CI,"[2]; HMC-1-8, compound A × partner, 72-hour proliferation",0.11
same,Best CI,"[2]; JIMT-1, compound A × partner, 72-hour proliferation",0.50
same,Best CI,"[2]; MCF7 cells, Compound A × partner agent, 72-hour proliferation",0.32
same,Best CI,"[2]; MDA-MB-175-VII cells, Compound A × partner agent, 72-hour proliferation",0.13
same,Best CI,"[2]; MDA-MB-231 cells, Compound A × partner agent, 72-hour proliferation",0.33
same,Best CI,"[2]; MDA-MB-361 cells, Compound A × partner agent, 72-hour proliferation",0.50
same,Best CI,"[2]; MDA-MB-436 cells, Compound A × partner agent, 72-hour proliferation",0.68
same,Best CI,"[2]; MDA-MB-453 cells, Compound A × partner agent, 72-hour proliferation",0.07
same,Best CI,"[2]; MDA-MB-468 cells, Compound A × partner agent, 72-hour proliferation",0.27
same,Best CI,"[2]; SK-BR-3 cells, combination of compound A with the named agent, 72-hour proliferation",0.70
same,Best CI,"[2]; SUM159PT cells, combination of compound A with the named agent, 72-hour proliferation",0.06
same,Best CI,"[2]; T47D cells, combination of compound A with the named agent, 72-hour proliferation",0.08
same,Best CI,"[2]; ZR-75-1 cells, combination of compound A with the named agent, 72-hour proliferation",0.07
same,Best CI,"[2]; ZR-75-30 cells, combination of compound A with the named agent, 72-hour proliferation",0.41
same,inhibition at 0.0005 µM,[3],2.3%
same,inhibition at 1 µM,[3],64.8%
same,inhibition at 3 µM,[3],69.9%
C=CC(=O)N1CCC([C@@H]2CCNc3c(C(N)=O)c(-c4ccc(Oc5ccccc5)cc4)nn32)CC1 [Zanubrutinib],Best CI,[4]; HBL-1 cells,0.05
same,Best CI Level,[4]; HBL-1 cells,55
same,Bliss Volume,[4]; HBL-1 cells,5.13
same,HSA volume,[4]; HBL-1 cells,10.34
same,Loewe Volume,[4]; HBL-1 cells,9.75
same,Synergy Score,[4]; HBL-1 cells,8.18
same,Best CI,[4]; OCI-Ly10 cells,0.50
same,Best CI Level,[4]; OCI-Ly10 cells,80
same,Bliss Volume,[4]; OCI-Ly10 cells,1.36
same,HSA volume,[4]; OCI-Ly10 cells,3.82
same,Loewe Volume,[4]; OCI-Ly10 cells,3.55
same,Synergy Score,[4]; OCI-Ly10 cells,4.04
same,Best CI,[4]; SU-DHL-2 cells,0.86
same,Best CI Level,[4]; SU-DHL-2 cells,40
same,Bliss Volume,[4]; SU-DHL-2 cells,1.42
same,HSA volume,[4]; SU-DHL-2 cells,0.63
same,Loewe Volume,[4]; SU-DHL-2 cells,1.23
same,Synergy Score,[4]; SU-DHL-2 cells,0.72
same,Best CI,[4]; SU-DHL-4 cells,1.06
same,Best CI Level,[4]; SU-DHL-4 cells,20
same,Bliss Volume,[4]; SU-DHL-4 cells,0.06
same,HSA volume,[4]; SU-DHL-4 cells,−4.15
same,Loewe Volume,[4]; SU-DHL-4 cells,−4.24
same,Synergy Score,[4]; SU-DHL-4 cells,0.76
same,Best CI,[4]; SU-DHL-8 cells,0.52
same,Best CI Level,[4]; SU-DHL-8 cells,30
same,Bliss Volume,[4]; SU-DHL-8 cells,−5.98
same,HSA volume,[4]; SU-DHL-8 cells,−5.32
same,Loewe Volume,[4]; SU-DHL-8 cells,−5.81
same,Synergy Score,[4]; SU-DHL-8 cells,0.66
same,Best CI,[4]; TMD8 cells,0.07
same,Best CI Level,[4]; TMD8 cells,80
same,Bliss Volume,[4]; TMD8 cells,2.31
same,HSA volume,[4]; TMD8 cells,4.24
same,Loewe Volume,[4]; TMD8 cells,3.33
same,Synergy Score,[4]; TMD8 cells,3.91
same,Best CI,[4]; U-2932 cells,0.54
same,Best CI Level,[4]; U-2932 cells,65
same,Bliss Volume,[4]; U-2932 cells,5.21
same,HSA volume,[4]; U-2932 cells,7.71
same,Loewe Volume,[4]; U-2932 cells,7.67
same,Synergy Score,[4]; U-2932 cells,4.92
